US20250221936A1, “ENGINEERED HEMICHANNELS, ENGINEERED VESICLES, AND USES THEREOF” (VIRGINIA TECH INTELLECTUAL PROPERTIES, INC., priority 2018, published 2025)
Entries after “also recorded” stand apart in the source; their conditions may differ. Where two headings read alike, the source gives them in different places.

Legend:
[1] = system: 8 mm diameter round wound; details: cited from earlier work
[2] = system: Human umbilical vein endothelial cells (HUVECs); details: cited from earlier work
[3] = system: human MGMT-deficient and TMZ-resistant GBM cells; details: cited from earlier work
[4] = system: heart allograft; details: 100 μM in UW solution, cited from earlier work
[5] = system: ARPE19 cell (immortalized human RPE cells) monolayers; details: pre-treatment, cited from earlier work
[6] = system: cornea; details: rat, in vivo; cited from earlier work
[7] = biological target: T1, GST-Cx43 CT (Rattus norvegicus, UniProt P08050); assay: EDC cross-linking of kinase reaction mixtures, Cx43 CT; type: binding; details: 5, 10 and 25 μM
T1 construct: pGEX-6-P2 Cx43 CT amino acids 255-382; made in house; host or cells: E. coli BL21
Description: To characterize the interaction between the Cx43 CT substrate and peptides, the in vitro kinase assay was performed as above with modification and the constituents then subjected to a cross-linking reaction. The assay buffer used was 20 mM 3-(N-morpholino) propanesulfonic acid (MOPS), pH 7.2. All other reagents present in the kinase reaction were maintained as described above. The reaction was allowed to proceed at 37° C. for 15 minutes. Afterwards, the carbodiimide crosslinker 1-Ethyl-3-(3-dimethylaminopropyl) carbodiimide HCl (EDC) (Thermo, 22980) was added to each solution for a final concentration of 20 mM. The solution was allowed to cross-link for one hour at room temperature. The reaction was stopped by the addition of 4×LDS loading buffer, boiled for 5 minutes and subsequently separated by PAGE. The resulting gel was stained in Coomassie brilliant blue (Sigma, B0770) for two hours and destained in a solution of 4% methanol 7% acetic acid overnight. Gel bands were subsequently excised for mass spectrometric analysis. For the direct interaction between protein and peptides, PBS, pH 7.5 was used as the coupling buffer. The protein (50 μg/ml) and peptide (25 μM) were allowed to react at room temperature for one hour before EDAC was added to the reaction mixture. The reaction was Western blotted for Cx43, GST or NeutroAvidin. […]

[8] = system: 4 mm long incisional skin injury; details: 60 μM in 20% pluronic gel, cited from earlier work
[9] = system: cryo-injured LV wall; details: cited from earlier work; for LV function: 8 week time course; for Cx43 in myocytes bordering the injury: mouse, in vivo; for arrhythmias: pacing and S1-S2 protocols
[10] = aqueous solutions; cited from earlier work
[11] = system: chronic, slow healing skin wounds; details: diabetic foot ulcers and venous leg ulcers; cited from earlier work
[12] = system: cerebral lesion; details: 100 μM in 2% collagen within HFM; cited from earlier work
[13] = system: choroidal neovascularization; details: mouse, in vivo; cited from earlier work
[14] = system: Cx43-Hela cells; details: cited from earlier work
[15] = biological target: T2, Cx43 hemichannel (Homo sapiens, UniProt P17302); details: 50 μM for 2 hrs; cited from earlier work
T2 construct: expressed in transfected cells; host or cells: HeLa (Cx43-HeLa)
T2 sequence (P17302 2-382 limits assumed): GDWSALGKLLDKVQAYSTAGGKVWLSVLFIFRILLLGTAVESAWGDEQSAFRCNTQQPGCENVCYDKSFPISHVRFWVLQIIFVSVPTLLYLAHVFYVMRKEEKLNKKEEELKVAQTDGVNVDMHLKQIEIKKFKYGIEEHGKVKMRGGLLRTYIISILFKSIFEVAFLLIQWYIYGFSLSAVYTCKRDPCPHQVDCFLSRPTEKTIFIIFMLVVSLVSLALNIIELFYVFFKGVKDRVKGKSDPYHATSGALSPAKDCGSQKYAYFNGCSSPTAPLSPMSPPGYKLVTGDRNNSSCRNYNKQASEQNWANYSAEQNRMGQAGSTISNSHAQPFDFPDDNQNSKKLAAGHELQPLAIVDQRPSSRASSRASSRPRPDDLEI

T1 sequence (P08050 255-382): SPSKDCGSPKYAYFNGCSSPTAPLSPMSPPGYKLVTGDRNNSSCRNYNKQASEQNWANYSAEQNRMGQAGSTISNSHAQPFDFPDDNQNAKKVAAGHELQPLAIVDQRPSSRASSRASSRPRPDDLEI

## RQPKIWFPNRRKPWKKRPRPDDLEI [alpha CT1]
[1]; 150 μM peptide, collagen gel, 30 days
  scar size: significantly (p<0.05) smaller than the controls
[1]; rat, in vivo
  wound closure rate: consistent significantly faster closure rates than the other 4 wounds
[2]; H2O2
  protection from oxidative stress: significantly protects endothelial cells from H2O2
[2]; UW solution containing 100 μM
  cellular injury: significantly reduced cellular injury as compared to untreated controls
[2]; UW solution supplemented with peptide
  IL-8 secretion and MHC II expression: significant reduction in IL-8 secretion and MHC Class II expression
[2]; UW+ACT1 solution
  TEER and IL-8 secretion post reperfusion: improved TEER and reduced IL-8 secretion
[3]
  sensitivity to TMZ: sensitized human MGMT-deficient and TMZ-resistant GBM cells to TMZ treatment
[4]; 6 h at 4° C., 30 mins post reperfusion
  Evan's Blue sequestration into the transplanted heart: significantly reduces Evan's Blue sequestration into the transplanted heart
[4]; 6 hrs at 4° C.
  graft injury, serum cardiac troponin I, neutrophils: significantly reduced cardiac injury, reduced serum cardiac troponin I and significantly reduced neutrophils
[5]
  VEGF-induced deterioration of TER: prevent VEGF-induced deterioration of TER
[5]; listed as ACTI
  VEGF-induced deterioration of TER: blocked by pre-treating the cells with the ACTI peptide
[6]
  corneal closure and regeneration: faster closure and more complete corneal regeneration than control corneas
[7]
  EDC cross-linking to Cx43 CT: covalently linked by EDC to Cx43 CT in a concentration-dependent manner
[8]; at 7 days
  appearance of incisional injury: smoother and less scarred appearance
[8]; by 48 hours
  appearance of incisional injury: significantly more closed, less inflamed, less swollen
[9]
  LV function: sustained improvements in ventricular contractile performance over an 8-week study period
  Cx43 in myocytes bordering the injury: reduced Cx43 GJ remodeling in injury border zone tissues
  arrhythmias: decreased propensity of the injured hearts to develop inducible arrhythmias
[9]; listed as ACTI
  LV function: significant improvement in LV diastolic and systolic function
  Cx43 in myocytes bordering the injury: higher and more uniform, intercalated-disk-localized and pS368 phosphorylated Cx43
  arrhythmias: dramatically reduced (p<0.05) frequency and severity of arrhythmias
[10]
  period of slow release of detectable levels of peptide: at least 7 days
[11]
  healing of skin wounds: high level of efficacy in promoting the healing of two types of chronic, slow healing skin wounds; also recorded: increased the healing rate of slow-healing skin wounds
[12]
  density of GFAP-positive astrocytes: much lower density of GFAP-positive astrocytes
[13]
  CNV injury spread and retinal function (ERG): reduced CNV injury spread and improved retinal function

## VFFKGVKDRVKGRSD [JM2]
[14]; 10 μM for 2, 6, and 24 hrs
  Cx43 GJ labeling: displayed little GJ labeling; also recorded: GJ labeling began to return at 6 hrs, and appeared normal after 24 hrs
[14]; 2 hr
  microtubule organization: disruption of microtubule organization
[15]
  hemichannel activity: significantly reduced hemichannel activity
